Assays:
ROS1-wt = biological target: T1, ROS1-wt (Homo sapiens, UniProt P08922); experiment: Biochemical kinase assay, ROS1-wt kinase domain; conditions: apparent inhibitory constant, Morrison equation; ATP 2 mM in substrate solution; read-out: ROS1-wt Ki^app
T1 construct: purchased Carna 08-163
Summary of the method: (§1)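 Compounds, as 100-fold DMSO stocks, were dispensed first, then substrate mix was added (ATP 2 mM, AQT0101 26 μM, in 50 mM HEPES pH 7.5/10 mM MgCl2). Reactions ran at 30 °C with fluorescence logged every 2 min over 120 min. Apparent inhibition constants came from fitting rates to Morrison's tight-binding equation.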

[1] = biological target: T2, Ba/F3 cells CD74-ROS1 wild-type (wt) (Homo sapiens, UniProt P08922); experiment: Ba/F3 cell proliferation assay, CD74-ROS1 wild-type; type: cell-based; conditions: 72 hours, CellTiter-Glo
T2 construct: fusion of the C-terminus of ROS1 with the N-terminus of various partner proteins; host or cells: Ba/F3 (RIKEN), retroviral pMSCV-puro; the other entry of the earlier key: CD74 (P04233, HLA class II histocompatibility antigen gamma chain)
T2 sequence (P08922 1883-2347 limits assumed): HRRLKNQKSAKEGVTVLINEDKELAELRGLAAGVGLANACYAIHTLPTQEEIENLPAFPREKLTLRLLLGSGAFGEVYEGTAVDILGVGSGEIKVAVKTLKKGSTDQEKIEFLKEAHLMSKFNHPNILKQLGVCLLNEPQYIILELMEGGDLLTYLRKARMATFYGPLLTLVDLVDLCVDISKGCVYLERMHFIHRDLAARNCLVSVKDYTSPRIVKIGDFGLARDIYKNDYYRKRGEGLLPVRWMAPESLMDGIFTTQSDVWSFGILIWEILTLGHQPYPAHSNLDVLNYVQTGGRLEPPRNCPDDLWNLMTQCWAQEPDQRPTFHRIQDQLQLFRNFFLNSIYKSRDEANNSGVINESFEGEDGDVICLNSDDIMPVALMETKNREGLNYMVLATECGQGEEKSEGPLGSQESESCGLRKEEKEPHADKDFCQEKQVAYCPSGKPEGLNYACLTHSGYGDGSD
Summary of the method: (§2)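 First, retrovirally infected Ba/F3 cells were made IL-3-independent and selected with puromycin (0.8 μg/mL). Next, cells were plated and rested one day. Then compounds in 3-fold dilutions were added for 72 hours before CellTiter-Glo readout.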

[2] = test system: TPM3-NTRK1-wt IC50 / primary target IC50 (e.g. CD74-ROS1-wt); experiment: TRKA selectivity in Ba/F3 cells (TRKA potency divided by primary target potency); type: cell-based; conditions: for TPM3-NTRK1-wt/CD74-ROS1-G2032R selectivity ratio: TRKA potency / CD74-ROS1-G2032R potency; for TPM3-NTRK1-wt/CD74-ROS1-wt selectivity ratio: TRKA potency / CD74-ROS1-wt potency; for TPM3-NTRK1-wt/EML4-ALK-L1196M-G1202R selectivity ratio: TRKA potency / EML4-ALK-L1196M-G1202R potency; for TPM3-NTRK1-wt/EML4-ALK-wt selectivity ratio: TRKA potency / EML4-ALK-wt potency
Experimental: TRKA selectivity was calculated by dividing a compound's TRKA potency by its primary target potency (e.g. TPM3-NTRK1-wt IC50/CD74-ROS1-wt IC50). Compound selectivity can be interpreted by binning ratio values: bin A for very high selectivity, ratio >30-fold; bin B for high selectivity, ratio >10-fold; bin C for moderate selectivity, ratio ≥1; and bin D for low selectivity, ratio <1. […] (nd=not determined).

[3] = biological target: T3, Ba/F3 cells CD74-ROS1 G2032R (Homo sapiens, UniProt P08922, G2032R); experiment: Ba/F3 cell proliferation assay, CD74-ROS1 G2032R; type: cell-based; conditions: 72 hours, CellTiter-Glo
T3 construct: fusion of the C-terminus of ROS1 with the N-terminus of various partner proteins; host or cells: Ba/F3 (RIKEN), retroviral pMSCV-puro; the other entry of the earlier key: CD74 (P04233, HLA class II histocompatibility antigen gamma chain)
T3 sequence (P08922 1883-2347 G2032R limits assumed): as the sequence (P08922 1883-2347 limits assumed) above, with G150R counted along it
Summary of the method: as §2

ROS1-G2032R = biological target: T4, ROS1-G2032R (Homo sapiens, UniProt P08922, G2032R); experiment: Biochemical kinase assay, ROS1-G2032R kinase domain; conditions: apparent inhibitory constant, Morrison equation; ATP 2 mM in substrate solution; read-out: ROS1-G2032R Ki^app
T4 construct: purchased SignalChem R14-12BG
T4 sequence (P08922 1945-2222 G2032R limits assumed): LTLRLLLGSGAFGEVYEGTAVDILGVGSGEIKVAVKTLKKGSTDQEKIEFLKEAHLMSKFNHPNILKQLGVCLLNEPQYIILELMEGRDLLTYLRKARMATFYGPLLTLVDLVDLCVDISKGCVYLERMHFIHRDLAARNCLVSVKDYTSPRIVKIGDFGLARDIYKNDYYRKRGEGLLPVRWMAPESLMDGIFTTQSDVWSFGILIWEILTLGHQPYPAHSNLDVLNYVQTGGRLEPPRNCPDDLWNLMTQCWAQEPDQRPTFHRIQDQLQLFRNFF
Summary of the method: as §1

Ba/F3 cells TPM3-TRKA = biological target: T5, Ba/F3 cells TPM3-TRKA (Homo sapiens, UniProt P04629); experiment: Ba/F3 cell proliferation assay, TPM3-TRKA; type: cell-based; conditions: 72 hours, CellTiter-Glo, read-out: TPM3-NTRK1-wt IC50
T5 construct: host or cells: Ba/F3 (RIKEN), retroviral pMSCV-puro; the other entry of the earlier key: TPM3 (P06753, Tropomyosin alpha-3 chain)
T5 sequence (P04629 510-796 limits assumed): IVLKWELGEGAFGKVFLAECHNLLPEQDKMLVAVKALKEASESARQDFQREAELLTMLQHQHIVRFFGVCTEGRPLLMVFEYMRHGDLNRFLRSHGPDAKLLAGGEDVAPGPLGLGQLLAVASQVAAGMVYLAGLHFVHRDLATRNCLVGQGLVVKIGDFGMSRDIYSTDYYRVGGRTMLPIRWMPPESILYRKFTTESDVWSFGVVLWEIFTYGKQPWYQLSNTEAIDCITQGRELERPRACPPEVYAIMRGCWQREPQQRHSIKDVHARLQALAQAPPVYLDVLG
Summary of the method: (§3)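 Luminescence from CellTiter-Glo after 72 hours of compound exposure measured viability of IL-3-independent Ba/F3 cells carrying the retrovirally introduced fusion. Cells were plated at 1,000 per well one day before 3-fold serial dilutions were added. IC50 values came from four-parameter logistic regression.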

TRKA-wt = biological target: T6, TRKA-wt (Homo sapiens, UniProt P04629); experiment: Biochemical kinase assay, TRKA-wt kinase domain; conditions: apparent inhibitory constant, Morrison equation; ATP 2 mM in substrate solution; read-out: TRKA-wt Ki^app
T6 construct: or TRKA-wt (1 nM, BPS Bio, 40280) kinase domains in buffer; purchased BPS Bio 40280
T6 sequence (P04629 510-781 limits assumed): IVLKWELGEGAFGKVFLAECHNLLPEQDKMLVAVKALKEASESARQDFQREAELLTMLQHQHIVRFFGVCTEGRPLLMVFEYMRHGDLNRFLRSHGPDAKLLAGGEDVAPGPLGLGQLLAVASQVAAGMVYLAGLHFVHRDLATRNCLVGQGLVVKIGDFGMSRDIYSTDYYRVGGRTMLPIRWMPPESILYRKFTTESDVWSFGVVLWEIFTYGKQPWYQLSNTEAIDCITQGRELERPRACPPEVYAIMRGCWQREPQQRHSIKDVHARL
Summary of the method: (§4)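 Kinase domains (in kinase solution: ROS1-G2032R 0.5 nM, ROS1-wt 0.6 nM, TRKA 1 nM, ALK L1196M/G1202R 3 nM) were mixed with compound and a substrate solution of 2 mM ATP plus 26 μM fluorogenic AQT0101 (ALK, ROS1) or AQT0104 (TRKA) in HEPES pH 7.5/MgCl2. Fluorescence was followed for 120 min at 30° C; Ki^app was obtained by Morrison fit of initial rates.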

ALK-wt = biological target: T7, ALK-wt (Homo sapiens, UniProt Q9UM73); experiment: Biochemical kinase assay, ALK-wt kinase domain; conditions: apparent inhibitory constant, Morrison equation; ATP 2 mM in substrate solution; read-out: ALK-wt Ki^app
T7 construct: purchased Carna 08-518
T7 sequence (Q9UM73 1116-1392 limits assumed): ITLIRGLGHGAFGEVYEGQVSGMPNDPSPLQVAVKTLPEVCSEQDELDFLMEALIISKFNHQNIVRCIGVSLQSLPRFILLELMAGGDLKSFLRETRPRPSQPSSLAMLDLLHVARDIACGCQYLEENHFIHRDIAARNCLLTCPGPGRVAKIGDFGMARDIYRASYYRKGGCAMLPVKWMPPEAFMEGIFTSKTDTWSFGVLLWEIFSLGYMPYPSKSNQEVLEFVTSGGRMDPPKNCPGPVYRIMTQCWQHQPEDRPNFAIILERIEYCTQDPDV
Summary of the method: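 Apparent Ki values come from fitting initial reaction rates against inhibitor concentration to the Morrison equation. Rates were taken from the linear phase of fluorogenic substrate phosphorylation (AQT0101 for ALK and ROS1, AQT0104 for TRKA; 26 μM in substrate solution with 2 mM ATP), monitored at 485 nm over 120 min at 30° C.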

[4] = biological target: T8, Ba/F3 cells EML4-ALK L1196M/G1202R (variant 1) (Homo sapiens, UniProt Q9UM73, G1202R/L1196M); experiment: Ba/F3 cell proliferation assay, EML4-ALK L1196M/G1202R (variant 1); type: cell-based; conditions: 72 hours, CellTiter-Glo
T8 construct: echinoderm microtubule-associated protein-like 4 (EML4) gene and the ALK tyrosine kinase domain; host or cells: Ba/F3 (RIKEN), retroviral pMSCV-puro; the other entry of the earlier key: EML4 (Q9HC35, Echinoderm microtubule-associated protein-like 4)
T8 sequence (Q9UM73 with tags, fused parts or gaps L1196M/G1202R): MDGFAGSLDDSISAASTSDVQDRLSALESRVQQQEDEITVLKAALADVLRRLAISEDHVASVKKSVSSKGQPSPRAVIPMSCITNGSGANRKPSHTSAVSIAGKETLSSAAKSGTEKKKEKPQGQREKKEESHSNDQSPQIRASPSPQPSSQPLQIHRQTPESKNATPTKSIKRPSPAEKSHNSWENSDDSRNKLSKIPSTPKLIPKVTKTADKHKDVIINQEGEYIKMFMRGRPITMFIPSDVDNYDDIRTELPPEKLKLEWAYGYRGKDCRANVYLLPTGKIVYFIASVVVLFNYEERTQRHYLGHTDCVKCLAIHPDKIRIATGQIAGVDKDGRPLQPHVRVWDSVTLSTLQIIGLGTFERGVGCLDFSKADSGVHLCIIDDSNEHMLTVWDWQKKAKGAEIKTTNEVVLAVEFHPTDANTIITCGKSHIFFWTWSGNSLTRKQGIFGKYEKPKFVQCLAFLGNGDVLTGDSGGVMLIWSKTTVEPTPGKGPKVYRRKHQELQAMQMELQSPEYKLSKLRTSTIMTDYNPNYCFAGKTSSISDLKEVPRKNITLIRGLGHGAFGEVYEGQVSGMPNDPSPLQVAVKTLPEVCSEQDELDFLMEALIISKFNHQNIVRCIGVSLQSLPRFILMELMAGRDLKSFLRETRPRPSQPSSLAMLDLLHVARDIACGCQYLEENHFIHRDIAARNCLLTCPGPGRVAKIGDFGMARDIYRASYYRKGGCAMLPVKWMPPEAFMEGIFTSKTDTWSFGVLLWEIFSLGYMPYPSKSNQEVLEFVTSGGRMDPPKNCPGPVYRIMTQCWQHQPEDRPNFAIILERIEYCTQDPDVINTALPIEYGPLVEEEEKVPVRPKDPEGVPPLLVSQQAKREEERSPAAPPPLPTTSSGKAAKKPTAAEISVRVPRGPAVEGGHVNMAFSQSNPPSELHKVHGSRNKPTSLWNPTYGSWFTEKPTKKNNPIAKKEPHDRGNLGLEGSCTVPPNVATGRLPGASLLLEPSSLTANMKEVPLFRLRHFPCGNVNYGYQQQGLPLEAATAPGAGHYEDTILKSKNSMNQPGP
Summary of the method: as §3

[5] = biological target: T9, Ba/F3 cells EML4-ALK wt (variant 1) (Homo sapiens, UniProt Q9UM73); experiment: Ba/F3 cell proliferation assay, EML4-ALK wt (variant 1); type: cell-based; conditions: 72 hours, CellTiter-Glo
T9 construct: echinoderm microtubule-associated protein-like 4 (EML4) gene and the ALK tyrosine kinase domain; host or cells: Ba/F3 (RIKEN), retroviral pMSCV-puro; the other entry of the earlier key: EML4 (Q9HC35, Echinoderm microtubule-associated protein-like 4)
T9 sequence (Q9UM73 with tags, fused parts or gaps): as the sequence (Q9UM73 with tags, fused parts or gaps L1196M/G1202R) above, with M635L, R641G counted along it
Summary of the method: as §3

ALK L1196M/G1202R = biological target: T10, ALK L1196M/G1202R (Homo sapiens, UniProt Q9UM73, G1202R/L1196M); experiment: Biochemical kinase assay, ALK L1196M/G1202R kinase domain; conditions: apparent inhibitory constant, Morrison equation; ATP 2 mM in substrate solution; read-out: ALK-L1196M-G1202R Ki^app
T10 construct: purchased SignalChem A19-12NG
T10 sequence (Q9UM73 1116-1392 L1196M/G1202R limits assumed): as the sequence (Q9UM73 1116-1392 limits assumed) above, with L81M, G87R counted along it
Summary of the method: as §4

T1 sequence (P08922 1945-2222 limits assumed): as the sequence (P08922 1945-2222 G2032R limits assumed) above, with R88G counted along it

Row | Structure (SMILES) | Ki (ROS1-wt) | IC50 [1] | TPM3-NTRK1-wt/CD74-ROS1-G2032R selectivity ratio [2] | TPM3-NTRK1-wt/CD74-ROS1-wt selectivity ratio [2] | TPM3-NTRK1-wt/EML4-ALK-L1196M-G1202R selectivity ratio [2] | TPM3-NTRK1-wt/EML4-ALK-wt selectivity ratio [2] | IC50 [3] | Ki (ROS1-G2032R) | IC50 (Ba/F3 cells TPM3-TRKA) | Ki (TRKA-wt) | Ki (ALK-wt) | IC50 [4] | IC50 [5] | Ki (ALK L1196M/G1202R)
1 | C[C@H]1Oc2cc(cnc2N)-c2c(cnn2C2CCC2)Cc2ncnn2-c2ccc(F)cc21 [Example 41, (19R)-3-cyclobutyl-16-fluoro-19-methyl-20-oxa-3,4,9,11,12,23-hexaazapentacyclo[19.3.1.0^2,^6.0^8,^12.0^13,^18]pentacosa-1(24),2(6),4,8,10,13,15,17,21(25),22-decaen-22-amine] | < 50 nM | 0.1 to 50 nM | A (bin A for very high selectivity, ratio >30-fold) | A (bin A for very high selectivity, ratio >30-fold) | B (bin B for high selectivity, ratio >10-fold) | A (bin A for very high selectivity, ratio >30-fold) | 0.1 to 50 nM | < 50 nM | > 500 nM | > 500 nM | < 50 nM | 0.1 to 50 nM | 0.1 to 50 nM | < 50 nM
2 | CCc1nsc2c1-c1cnc(N)c(c1)O[C@H](C)c1cc(F)ccc1-c1ncnn1C2 [Example 44, (19R)-3-ethyl-16-fluoro-19methyl-20-oxa-5-thia-4,8,9,11,23-pentaazapentacyclo[19.3.1.0^2,^6.0^8,^12.0^13,^18]pentacosa-1(24),2(6),3,9,11,13,15,17,21(25),22-decaen-22-amine] | < 50 nM | 0.1 to 50 nM | A (bin A for very high selectivity, ratio >30-fold) | A (bin A for very high selectivity, ratio >30-fold) | C (bin C for moderate selectivity, ratio ≥1) | A (bin A for very high selectivity, ratio >30-fold) | 0.1 to 50 nM | 50 to 500 nM | > 500 nM | > 500 nM | < 50 nM | 50 to 500 nM | 0.1 to 50 nM | 50 to 500 nM
3 | C[C@H]1Oc2cc(cnc2N)-c2c(cnn2CC2CC2)Cn2nc(Cl)cc2-c2ccc(F)cc21 [Example 74, (19R)-10-chloro-3-(cyclopropylmethyl)-16-fluoro-19-methyl-20-oxa-3,4,8,9,23-pentaazapentacyclo[19.3.1.0^2,^6.0^8,^12.0^13,^18]pentacosa-1(24),2(6),4,9,11,13,15,17,21 (25),22-decaen-22-amine] | < 50 nM | 0.1 to 50 nM | A (bin A for very high selectivity, ratio >30-fold) | A (bin A for very high selectivity, ratio >30-fold) | B (bin B for high selectivity, ratio >10-fold) | A (bin A for very high selectivity, ratio >30-fold) | 0.1 to 50 nM | < 50 nM | 50 to 500 nM | 50 to 500 nM | < 50 nM | 0.1 to 50 nM | 0.1 to 50 nM | < 50 nM
4 | C[C@H]1Oc2cc(cnc2N)-c2c(cnn2CC2CC2)Cc2nn(C)cc2-c2ccc(F)cc21 [Example 61, (19R)-3-(cyclopropylmetbyl)-16-fluoro-10,19-dimethyl-20-oxa-3,4,9,10,23-pentaazapentacyclo[19.3.1.0^2,^6.0^8,^12.0^13,^18]pentacosa-1(24),2(6),4,8,11,13,15,17,21(25),22-decaen-22-amine] | < 50 nM | 0.1 to 50 nM | A (bin A for very high selectivity, ratio >30-fold) | A (bin A for very high selectivity, ratio >30-fold) | A (bin A for very high selectivity, ratio >30-fold) | A (bin A for very high selectivity, ratio >30-fold) | 0.1 to 50 nM | < 50 nM | > 500 nM | > 500 nM | < 50 nM | 0.1 to 50 nM | 0.1 to 50 nM | < 50 nM
5 | C[C@H]1Oc2cc(cnc2N)-c2c(cnn2C2CCC2)Cc2nn(C)nc2-c2ccc(F)cc21 [Example 13, (19R)-3-cyclobutyl-16-fluoro-10,19-dimethyl-20-oxa-3,4,9,10,11,23-hexaazapentacyclo[19.3.1.0^2,^6.0^8,^12.0^13,^18]pentacosa-1(24),2(6),4,8,11,13,15,17,21(25),22-decaen-22-amine] | < 50 nM | 0.1 to 50 nM | A (bin A for very high selectivity, ratio >30-fold) | A (bin A for very high selectivity, ratio >30-fold) | A (bin A for very high selectivity, ratio >30-fold) | A (bin A for very high selectivity, ratio >30-fold) | 0.1 to 50 nM | < 50 nM | > 500 nM | > 500 nM | < 50 nM | 0.1 to 50 nM | 0.1 to 50 nM | < 50 nM
6 | CCn1nc(C(F)(F)F)c2c1-c1cnc(N)c(c1)O[C@H](C)c1cc(F)ccc1-c1nn(C)nc1C2 [Example 80, (19R)-3-ethyl-16-fluoro-10,19-dimethyl-5-(trifluoromethyl)-20-oxa-3,4,9,10,11,23-hexaazapentacyclo[19.3.1.0^2,^6.0^8,^12.0^13,^18]pentacosa-1(24),2(6),4,8,11,13,15,17,21(25),22-decaen-22-amine] | < 50 nM | 0.1 to 50 nM | A (bin A for very high selectivity, ratio >30-fold) | A (bin A for very high selectivity, ratio >30-fold) | C (bin C for moderate selectivity, ratio ≥1) | B (bin B for high selectivity, ratio >10-fold) | 0.1 to 50 nM | 50 to 500 nM | > 500 nM | > 500 nM | < 50 nM | > 500 nM | 50 to 500 nM | 50 to 500 nM
